According to patent publication US20040186166A1, “Cannabinoid analogs as peroxisome proliferator activated nuclear receptor gamma activators” (priority 2002, published 2004):
pEC50: −log10 of the molar value. “And” between values parts separate entries of the source, which are not always exact repeats. Equal entries are not always repeated.

Legend:
Gal4-DBD/mPPARγ = target: T1, Gal4-DBD/mPPARγ (Mus musculus, UniProt P37238); assay: Gal4-dependent MH100-Luc reporter, Gal4-DBD/mPPARγ; format: cell-based; conditions: HEK293 cells
T1 construct: expressed in transfected cells; host or cells: HEK293
T1 sequence (P37238 1-475 isoform P37238-2): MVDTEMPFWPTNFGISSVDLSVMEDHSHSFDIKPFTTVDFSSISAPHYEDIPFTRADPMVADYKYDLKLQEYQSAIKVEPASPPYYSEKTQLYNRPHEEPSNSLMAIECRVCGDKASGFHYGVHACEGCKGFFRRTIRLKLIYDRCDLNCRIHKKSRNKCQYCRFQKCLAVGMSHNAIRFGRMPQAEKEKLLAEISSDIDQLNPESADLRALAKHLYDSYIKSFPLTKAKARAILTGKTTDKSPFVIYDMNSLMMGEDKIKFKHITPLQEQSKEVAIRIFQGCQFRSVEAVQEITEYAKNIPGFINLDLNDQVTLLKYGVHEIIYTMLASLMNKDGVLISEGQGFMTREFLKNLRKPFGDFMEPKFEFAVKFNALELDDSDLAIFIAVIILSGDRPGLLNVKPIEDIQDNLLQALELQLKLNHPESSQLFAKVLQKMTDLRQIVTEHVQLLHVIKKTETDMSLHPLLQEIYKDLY
From the text: The-pCMX-Gal4-mPPARγ1 was constructed by fusing the mPPARγ1 coding sequence to the yeast GAL4 DNA binding domain (amino acid 1-147) in the pCMX vector. The AF-2 helix-truncated mutant of mPPARγ1 (PPARγ ΔAF2) was generated by PCR amplification-to introduce a stop codon and a NheI restriction site after amino acid 489, and then-subcloned into the pCMX vector. The PPRE-TK-LUC, MH100-TK-LUC-and DR1-TK-LUC reporters have been described previously (Forman et al., Cell 83:803-812, 1995; Umesono et al., Cell 65:1255-1266, 1991).
(§1) For PPARγ activation assay, HEK293 cells were plated in 12-well cell culture plates and maintained in Dulbecco's modified Eagle's medium (DMEM) supplemented with 10% fetal bovine serum (FBS) at 37° C. under 5% CO2. […] The average normalized luciferase activity was determined via triplicate experiments. […]
To further confirm activation of PPARγ by AJA, and also to determine PPARγ species specificity, the ability of AJA to activate the chimeric Gal4-DBD/PPAR fusion proteins on a Gal4-dependent MH100-Luc reporter was assessed (FIG. 4A). The PPARs were expressed as Gal4 DBD fusion proteins, which bind to the UAS promoter containing 4 copies of a synthetic Gal4 binding site upstream of the minimal thymidine kinase (TK) promoter. […]

human PPARγ = target: T2, human PPARγ (Homo sapiens, UniProt P37231); assay: Gal4-dependent MH100-Luc reporter, human PPARγ; format: cell-based; conditions: compared with mouse PPARγ
T2 construct: The Gal4-hPPAR LBD constructs were obtained from GlaxoSmithKline; host or cells: HEK293
T2 sequence (P37231 238-503 limits assumed): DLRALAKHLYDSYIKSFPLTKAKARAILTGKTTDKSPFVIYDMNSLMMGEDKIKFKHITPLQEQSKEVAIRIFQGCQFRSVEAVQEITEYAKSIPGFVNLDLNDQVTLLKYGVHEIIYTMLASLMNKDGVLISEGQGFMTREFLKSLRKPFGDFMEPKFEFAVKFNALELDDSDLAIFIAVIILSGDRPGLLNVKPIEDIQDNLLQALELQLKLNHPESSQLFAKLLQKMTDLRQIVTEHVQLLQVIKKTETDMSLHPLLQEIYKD
Experimental: The pGEX-DRIP205 (527˜970) was obtained from the Sloan-Kettering Cancer Center. The Gal4-hPPAR LBD constructs were obtained from GlaxoSmithKline, Research Triangle Park, NC. The IL8-Luciferase reporter was obtained from Celgene, San Diego, Calif. The plasmids mPPARα, mPPARγ1, mPPARδ , and hRXRα were in the pCMX vector (Umesono et al., Cell 65:1255-1266, 1991).
as §1
To further confirm activation of PPARγ by AJA, and also to determine PPARγ species specificity, the ability of AJA to activate the chimeric Gal4-DBD/PPAR fusion proteins on a Gal4-dependent MH100-Luc reporter was assessed (FIG. 4A). The PPARs were expressed as Gal4 DBD fusion proteins, which bind to the UAS promoter containing 4 copies of a synthetic Gal4 binding site upstream of the minimal thymidine kinase (TK) promoter. […] Transfected cells were treated with increasing concentrations of AJA from 10-60 μM and the luciferase activities were determined in triplicate experiments. […]

COX-2 = target: T3, COX-2 (Homo sapiens, UniProt P35354); conditions: Zurier et al. 1998; cited from earlier work
T3 sequence (P35354 18-604): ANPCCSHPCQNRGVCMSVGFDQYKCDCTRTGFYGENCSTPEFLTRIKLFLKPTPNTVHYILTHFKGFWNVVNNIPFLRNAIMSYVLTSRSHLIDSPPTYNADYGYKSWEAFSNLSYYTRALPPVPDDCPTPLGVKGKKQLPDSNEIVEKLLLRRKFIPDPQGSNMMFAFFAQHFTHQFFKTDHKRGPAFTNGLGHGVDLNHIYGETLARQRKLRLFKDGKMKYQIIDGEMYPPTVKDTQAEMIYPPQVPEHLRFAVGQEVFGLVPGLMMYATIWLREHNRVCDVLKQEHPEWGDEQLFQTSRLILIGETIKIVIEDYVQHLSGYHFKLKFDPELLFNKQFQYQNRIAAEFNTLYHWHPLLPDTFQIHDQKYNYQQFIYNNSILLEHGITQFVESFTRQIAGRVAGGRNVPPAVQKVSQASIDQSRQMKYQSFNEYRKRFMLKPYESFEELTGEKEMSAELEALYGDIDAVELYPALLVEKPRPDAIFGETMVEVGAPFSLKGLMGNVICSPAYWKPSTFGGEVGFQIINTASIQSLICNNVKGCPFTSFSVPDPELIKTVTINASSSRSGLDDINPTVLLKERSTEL

CCCCCCC(C)(C)c1cc(O)c2c(c1)OC(C)(C)[C@@H]1CC=C(C(=O)O)C[C@@H]21 [AJA, dimethylheptyl-THC-11-oic acid]
activation of Gal4-DBD/mPPARγ reporter gene expression (Gal4-DBD/mPPARγ; 20 μM AJA): activated the reporter gene expression significantly | pEC50 (Gal4-DBD/mPPARγ; EC-50 for activation of PPARγ, estimated, 10-60 μM AJA, luciferase activity): ~4.89 and 4.89 | activation of human PPARγ (human PPARγ): activates human PPARγ as efficiently as mouse PPARγ | concentration range suppressing COX-2 activity (COX-2): 1 to 10 µM
